The term IC50 denotes the midpoint of a concentration-inhibition curve.

Drawing on ChEMBL document CHEMBL5055675, “Apoptosis Inducing 1,3,4-Oxadiazole Conjugates of Capsaicin: Their In Vitro Antiproliferative and In Silico Studies” (ACS Med Chem Lett, 2021), this text covers IC50 and Activity for two molecules.

Common to all, as to type: functional
For test [1], the system named is HCT-116. In words: Antiproliferative activity against human HCT-116 cells assessed as cell growth inhibition measured after 72 hrs by crystal violet staining based assay. The settings on record: HCT-116, 72 h.
In test [2] the test system is NCI-H460. The experiment in a line: Antiproliferative activity against human NCI-H460 cells assessed as cell growth inhibition measured after 72 hrs by crystal violet staining based assay. The settings on record: NCI-H460, 72 h.
For test [3], the system named is SK-OV-3. The experiment in a line: Antiproliferative activity against human SK-OV-3 cells assessed as cell growth inhibition measured after 72 hrs by crystal violet staining based assay. The settings on record: SK-OV-3, 72 h.
Test [4] deals with NCI-H460. In words: Induction of apoptosis in human NCI-H460 cells assessed as early apoptotic cells measured after 72 hrs by Annexin V-FITC and propidium iodide staining based flow cytometry analysis (Rvb= 6.61%). (Flow cytometry measures light scatter and fluorescence of single cells or particles in a stream.)
Test [5] concerns NCI-H460. The experiment in a line: Induction of apoptosis in human NCI-H460 cells assessed as late apoptotic cells measured after 72 hrs by Annexin V-FITC and propidium iodide staining based flow cytometry analysis (Rvb= 6.93%).

Take `COc1cccc2c1C(=O)c1c(O)c3c(c(O)c1C2=O)C[C@@](O)(C(=O)CO)C[C@@H]3O[C@H]1C[C@H](N)[C@H](O)[C@H](C)O1` [DOXORUBICIN]: the figures for the IC50 in test [1], in test [2] and in test [3] were 0.0578 µM, 0.00429 µM and 0.0258 µM, respectively. In addition, the Activity in test [4] is given as 7.16%.

`COc1cc(CNC(=O)CCCC/C=C/C(C)C)ccc1O` [CAPSAICIN]: the IC50 in test [1] was 40.2 µM; in test [2] it was 30.7 µM; in test [3], 22 µM. For the same molecule, the Activity is given as 7.17% in test [4] and 7.25% in test [5].
